What was measured:
HCT116 cells [1] = assay: Cell cycle distribution by flow cytometry (FACS); assay type: cell-based, human; conditions: HCT116, 72 h, lowest concentration of 5 μM; for G2/M phase: negative control 14.2 ± 1.1%; for G1 phase: negative control 49.5 ± 1.8%
Procedure: HCT116 cells (40 000 cells per well) were treated with the test compounds (6c, 6m) for 72 h in the concentration range of 5, 10 and 20 μM. After treatment cells were washed with DPBS (Sigma; modified, without calcium chloride and magnesium chloride) and trypsinized using a trypsin–EDTA solution (Gibco™, 0.05%). After additional washing with DPBS, cells were stained at +4 °C overnight using PI/HFS solution (50 μg mL^−1).[67] Samples were then analysed using Guava® easyCyte™ 8HT (Merck Millipore) flow cytometer with Guava Clean 3.1 software. The amount of debris was in the range of 9.2 ± 2.0%.

HCT116 cells [2] = assay: Cell viability (MTT assay), HCT116; assay type: cell-based; conditions: Homo sapiens, HCT-116, 96 h treatment, read-out: GI50 ± SD HCT116
Procedure: (§1) SW480 (human colon adenocarcinoma, adherent, epithelial, ATCC number: CCL-228), HT29 (human colon adenocarcinoma, adherent, epithelial, ATCC number: HTB-38), and HCT116 (human colon adenocarcinoma, adherent, epithelial-like, ATCC number: CCL-247) cells were maintained in RPMI-1640 medium (Sigma-Aldrich). Medium was supplemented with heat-inactivated FBS (Biowest), penicillin–streptomycin (Sigma; with 10 000 units penicillin and 10 mg streptomycin per mL in 0.9% NaCl) and L-glutamine (Sigma; 200 mM solution). Cell cultures were cultivated at 37 °C, maintaining a humidified atmosphere consisting of 5% CO2. Gibco™ trypsin–EDTA (0.05%) was used for cell passage.
(§2) To evaluate cell viability, SW480, HT29, and HCT116 cells were harvested from culture flasks by trypsinization and seeded into 96-well plates in 4000 cells per well, 3000 cells per well and 4000 cells per well densities, respectively. After 24 h preincubation period, cells were treated in triplicates with nine different doses of each compound (6a–o and 7a–c) for 96 h. After treatment compound solutions were replaced with MTT solution (MTT reagent in PBS, […]) diluted in a 6 : 1 ratio in non-supplemented RPMI-1640 medium and were additionally incubated for 2 h. After incubation, the medium was removed, and formazan product was dissolved in DMSO. Optical densities were measured at 550 nm with TECAN Infinite® M200 PRO microplate reader using a reference wavelength of 690 nm to correct unspecific absorption. The quantity of viable cells was normalized to untreated controls. The GI50 values were calculated from dose–response curves.

HCT116 cells [3] = assay: Viability staining via Calcein AM/Hoechst/PI, HCT116; assay type: cell-based, human; conditions: 20 µM, 24 h (Fig. S134 legend), method block: 4 μM, 96 h
Procedure: (§3) SW480, HT29 and HCT116 cells were seeded in 24-well plates in a cell density of 6000 cells per well and settled for 24 h. […] Cells were stained with propidium iodide (Sigma Aldrich, final concentration 2 μg mL^−1) and Hoechst 33342 (ThermoFisher Scientific, final concentration 0.5 μM) for 60 min and with Calcein AM (Merck, BioReagent, final concentration 50 μM) for 15 min, washed two times with PBS and finally covered with PBS for further analysis. Fluorescence microscopic evaluation was performed on a Evos FL Cell Imaging System (ThermoFisher Scientific).

SW480 cells [4] = assay: Cell viability (MTT assay), SW480; assay type: cell-based; conditions: Homo sapiens, SW480, 96 h, 96 h treatment, read-out: GI50 ± SD SW480
Procedure: as §1, §2

HT29 cells [5] = assay: Viability staining via Calcein AM/Hoechst/PI, HT29; assay type: cell-based, human; conditions: 20 µM, 24 h (Fig. S136 legend), method block: 4 μM, 96 h
Procedure: SW480, HT29 and HCT116 cells were seeded in 24-well plates in a cell density of 6000 cells per well and settled for 24 h. Afterwards cells were treated with 4 μM of test compounds 6a, c, f, h, m–o for 96 h. Cells were stained with propidium iodide (Sigma Aldrich, final concentration 2 μg mL^−1) and Hoechst 33342 (ThermoFisher Scientific, final concentration 0.5 μM) for 60 min and with Calcein AM (Merck, BioReagent, final concentration 50 μM) for 15 min, washed two times with PBS and finally covered with PBS for further analysis. Fluorescence microscopic evaluation was performed on a Evos FL Cell Imaging System (ThermoFisher Scientific).

SW480 cells [6] = assay: Viability staining via Calcein AM/Hoechst/PI, SW480; assay type: cell-based, human; conditions: 20 µM, 24 h (Fig. S135 legend), method block: 4 μM, 96 h
Procedure: as §3

HT29 cells [7] = assay: Cell viability (MTT assay), HT29; assay type: cell-based; conditions: Homo sapiens, HT-29, 96 h treatment, read-out: GI50 ± SD HT29
Procedure: as §1, §2

human serum albumin = biological target: T1, human serum albumin (Homo sapiens, UniProt P02768); assay: Plasma protein binding (PPB), HPLC on albumin-bound stationary phase; assay type: in vitro ADME; conditions: pH 7.4, binding to human serum albumin, HPLC method
T1 construct: purchased Chiral Technologies, DAICEL Group, Europe SAS, France CHIRALPAK®HAS (50 × 3 mm, 5 μm)
Procedure: Retention times of the analytes were measured with Shimadzu HPLC system on the CHIRALPAK®HAS stationary phase (50 × 3 mm, 5 μm, Chiral Technologies, DAICEL Group, Europe SAS, France). The mobile phase A consisted of 50 mM aqueous ammonium acetate buffer (pH 7.4) and phase B of 2-propanol according to Valko et al.[65] Analysis was performed at prolonged 1 mL min^−1 flow rate in the linear gradient. Retention capacity factors (k′) were calculated by using DMSO or a substance with 0% HAS binding for systems' dead time (Rt0). The system was calibrated by injecting the reference compounds: acetylsalicylic acid (CAS 69-72-7), betamethasone (CAS 378-44-9), budesonide (CAS 5133-22-3), carbamazepine (CAS 298-46-4), cimetidine (CAS 51481-61-9), ciprofloxacin (CAS 85721-33-1), indomethacin (CAS 53-86-1), isoniazid (CAS 54-85-3), metronidazole (CAS 443-48-1), nicardipine (CAS 55985-32-5), nizatidine (CAS 76963-41-2) and warfarin (CAS 81-81-2) obtained from Sigma-Aldrich, diclofenac (CAS 15307-86-5) from EMD Chemicals Inc., flumazenil (CAS 78755-81-4) from ABX and ketoprofen (CAS 22071-15-4) from LKT Labs. The logarithmic capacity factors of the references' Rt (log(k′)) on the HSA column were plotted against the %PPB values from literature. The slope and the intercept were used to convert the log(k′) of the compounds (6a, c, f, h, m–o) to %PPB using the regression equation.[66]

[8] = Determination of HPLC–log P; assay type: physicochemical; conditions: reversed-phase HPLC on apHera C18 column; methanol / 0.01 M phosphate buffer pH 7.4; mean ± SD
Procedure: HPLC–log P values were determined using Shimadzu HPLC system equipped with apHera C18 column (10 × 6 mm, 5 μm, Supelco, Bellefonte, PA, USA). Each sample was dissolved in the internal standard mixture, consisting of triphenylene (99.9%, Carl Roth) and toluene (≥98%, Sigma-Aldrich). Analysis was performed at 1.5 mL min^−1 flow rate in the linear gradient where mobile phase consisted of methanol and 0.01 M phosphate buffer (pH 7.4). The HPLC–log P values were calculated from the measured retention times using previously published equation.[57]

SW620/Ad300 = test system: SW620/Ad300; set-up: method as in PMID 24979269; conditions: SW620/Ad300 multi-drug resistant daughter cell line; read-out: IC50 cytotoxicity; cited from earlier work
SW620 = test system: SW620; set-up: method as in PMID 24979269; conditions: SW620 colorectal cancer cells; read-out: IC50 cytotoxicity; cited from earlier work

T1 sequence (P02768 25-609): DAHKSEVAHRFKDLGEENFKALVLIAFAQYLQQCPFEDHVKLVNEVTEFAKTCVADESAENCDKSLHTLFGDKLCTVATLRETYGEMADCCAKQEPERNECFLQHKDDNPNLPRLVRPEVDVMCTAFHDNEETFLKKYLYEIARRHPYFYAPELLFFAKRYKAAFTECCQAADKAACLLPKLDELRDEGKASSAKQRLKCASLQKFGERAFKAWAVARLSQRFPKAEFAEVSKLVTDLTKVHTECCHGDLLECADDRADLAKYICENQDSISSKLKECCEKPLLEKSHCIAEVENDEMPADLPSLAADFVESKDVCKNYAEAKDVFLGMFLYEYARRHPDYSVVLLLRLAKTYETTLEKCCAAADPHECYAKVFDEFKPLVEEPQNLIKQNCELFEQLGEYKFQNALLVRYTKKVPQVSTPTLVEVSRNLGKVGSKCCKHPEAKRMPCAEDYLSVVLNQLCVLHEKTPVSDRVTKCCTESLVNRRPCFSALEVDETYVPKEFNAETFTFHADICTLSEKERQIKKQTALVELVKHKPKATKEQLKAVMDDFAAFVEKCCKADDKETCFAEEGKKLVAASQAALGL

SMILES	G2/M phase (HCT116 cells [1])	G1 phase (HCT116 cells [1])	melting point	GI50 (HCT116 cells [2])	PI staining (necrosis) (HCT116 cells [3])	GI50 (SW480 cells [4])	PI staining (necrosis) (HT29 cells [5])	PI staining (necrosis) (SW480 cells [6])	GI50 (HT29 cells [7])	fraction unbound (human serum albumin)	chromatographic logP [8]	IC50 (SW620/Ad300)	IC50 (SW620)
CCOC(=O)c1c(-c2ccccc2)c(-c2ccccc2)nn1CC(=O)c1ccc(F)cc1 [Compound 6c, Ethyl 1-[2-(4-fluorophenyl)-2-oxoethyl]-3,4-diphenyl-1H-pyrazole-5-carboxylate]	25.0 ± 0.5%	63.2 ± 1.4%	114 to 115 °C	1.96 ± 0.266 µM	no involvement of necrosis	5.52 ± 3.72 µM	no involvement of necrosis	no involvement of necrosis	4.98 ± 2.62 µM	0.04	4.453 ± 0.005	–	–
CCOC(=O)c1c(-c2ccccc2)c(-c2ccc(F)cc2)nn1CC(=O)c1ccc(F)cc1 [Compound 6m, Ethyl 3-(4-fluorophenyl)-1-[2-(4-fluorophenyl)-2-oxoethyl]-4-phenyl-1H-pyrazole-5-carboxylate]	26.9 ± 0.8%	61.0 ± 1.8%	104 to 105 °C	1.46 ± 0.247 µM	no involvement of necrosis	1.44 ± 0.173 µM	no involvement of necrosis	no involvement of necrosis	2.69 ± 0.11 µM	0.034	4.545 ± 0.006	–	–
COC(=O)c1c(-c2ccc(O)cc2)c(-c2ccc(O)cc2)cn1CC(=O)c1ccc(OC)cc1 [Lamellarin O]	–	–	–	–	–	–	–	–	–	–	–	22.3 µM	20 µM

Source: paper PMC9999251, “Pyrazole-based lamellarin O analogues: synthesis, biological evaluation and structure–activity relationships” (RSC Advances, 2023)
